# Patent US20150297615A1, “ANDROGEN RECEPTOR INACTIVATION CONTRIBUTES TO ANTITUMOR EFFICACY OF CYP17 INHIBITORS IN PROSTATE CANCER” (UNIVERSITY OF MARYLAND, BALTIMORE, priority 2008, published 2015)
# Changes are numbered by the printed parent chain. Read-outs that look alike come from different tables or passages of the source.
# What was measured:
# T877A AR = molecular target: T1, T877A AR (Homo sapiens, UniProt P10275, T878A); assay: Competitive inhibition of [3H]R1881 binding, T877A AR (LNCaP cells); details: read-out: T877A (LNCaP), inhibition of [3H]R1881 binding as symbol
# T1 construct: endogenous in cells; host or cells: LNCaP cells
# T1 sequence (P10275 1-920 T878A): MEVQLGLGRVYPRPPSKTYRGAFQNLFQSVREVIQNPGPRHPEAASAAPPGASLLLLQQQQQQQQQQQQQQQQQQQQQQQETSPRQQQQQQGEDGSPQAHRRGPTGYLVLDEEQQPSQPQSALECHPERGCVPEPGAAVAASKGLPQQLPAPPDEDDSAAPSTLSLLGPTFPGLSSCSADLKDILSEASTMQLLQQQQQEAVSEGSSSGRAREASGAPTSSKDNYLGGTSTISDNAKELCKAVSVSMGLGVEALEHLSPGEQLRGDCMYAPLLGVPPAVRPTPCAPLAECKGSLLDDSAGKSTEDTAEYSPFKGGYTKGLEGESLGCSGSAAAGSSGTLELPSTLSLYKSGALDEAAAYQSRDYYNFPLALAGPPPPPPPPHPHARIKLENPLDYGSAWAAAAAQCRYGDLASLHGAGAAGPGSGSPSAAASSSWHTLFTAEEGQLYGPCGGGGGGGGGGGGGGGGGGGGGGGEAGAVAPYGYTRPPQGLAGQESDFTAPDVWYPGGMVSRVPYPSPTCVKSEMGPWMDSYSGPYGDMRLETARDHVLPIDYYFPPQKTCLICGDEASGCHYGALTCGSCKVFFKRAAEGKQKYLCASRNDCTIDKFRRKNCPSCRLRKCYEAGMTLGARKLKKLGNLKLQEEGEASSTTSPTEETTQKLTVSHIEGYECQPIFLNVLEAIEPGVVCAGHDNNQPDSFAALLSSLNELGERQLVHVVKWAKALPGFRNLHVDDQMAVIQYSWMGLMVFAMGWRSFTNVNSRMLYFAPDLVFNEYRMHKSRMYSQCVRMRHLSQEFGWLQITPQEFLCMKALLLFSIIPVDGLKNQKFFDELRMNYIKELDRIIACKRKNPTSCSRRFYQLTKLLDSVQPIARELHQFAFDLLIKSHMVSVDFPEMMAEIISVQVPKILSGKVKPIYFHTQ
# Experimental: (§1) In order to determine if the CYP17 inhibitors interact with the AR, competitive binding assays were performed as described previously. The ability of the test compounds (1 nM-10 μM) to displace [^3H]R1881 (5.0 nM) from the AR was determined in LAPC4 cells (wild-type AR), PC3 cells transfected with wild-type AR (PC3-AR), LNCaP cells which express an endogenous AR with a mutation in the ligand binding domain (T877A), and PC3 cells transfected with an AR containing a mutation in the DNA binding domain (T575A).
# (§2) The ability of the test compounds to displace [^3H]R1881 (5.0 nM) from the androgen receptor was determined in LAPC4 cells (wild-type AR), PC3 cells transfected with wild-type AR, LNCaP cells which express an endogenous AR with a mutation in the ligand binding domain (T877A), and PC3 cells transfected with an AR containing a mutation in the DNA binding domain (T575A). Cells were plated (2-3×10^5) in 24 well multiwell dishes in steroid-free medium and allowed to attach. The following day the medium was replaced with serum-free, steroid free RPMI supplemented with 0.1% BSA and containing [^3H]R1881 (5 nM), test compounds (1 nM-10 μM), and 1 μM triamcinolone acetonide to saturate progesterone and glucocorticoid receptors. Following a 2 hour incubation period at 37° C., cells were washed twice with ice-cold DPBS and solubilized in DPBS containing 0.5% SDS and 20% glycerol.
# wild-type AR = molecular target: T2, wild-type AR (Homo sapiens, UniProt P10275); assay: Competitive inhibition of [3H]R1881 binding, wild-type AR (LAPC4/PC3-AR cells); details: read-out: wild-type (LAPC4/PC3-AR), inhibition of [3H]R1881 binding as symbol
# T2 construct: the wild-type AR expressed endogenously in LAPC4 cells; endogenous in cells; host or cells: LAPC4 cells (endogenous) and PC3-AR cells (PC-3 stably transfected with human wild-type AR)
# T2 sequence (P10275 1-920): T1 sequence (P10275 1-920 T878A) with A878T
# Experimental: as §1, §2
# LAPC4 cells = assay: Cell proliferation assay (MTT), LAPC4 cells; details: Homo sapiens, LAPC4, 168 h
# Experimental: (§3) To determine the effect of steroids and novel compounds on cell proliferation, each cell type was transferred into steroid-free medium three days prior to the start of the experiments (steroid-free medium consisted of phenol red free RPMI supplemented with 5% dextran-coated, charcoal treated serum and 1% penicillin/streptomycin solution). Growth studies were then performed by plating cells (1.5×10^4cells/well) in 24-well multiwell dishes (Corning, Inc. Corning, N.Y.). After a 24 hour attachment period, the medium was aspirated and replaced with steroid-free medium containing vehicle or the indicated concentrations of androgens and novel compounds (1 nM-10 μM). Control wells were treated with vehicle (ethanol). […] The medium was changed every three days and the numbers of viable cells were compared by MTT or XTT (LNCaP) assay on the seventh day.
# (§4) For the MTT procedure, following incubation of cells for the above mentioned time, 0.5 mg/ml MTT was added to each well and incubated at 37° C. for three hours. Following incubation, the medium was aspirated completely, with care taken not to disturb the formazan crystals. DMSO (500 μl) was used to solubilize these crystals. After slight shaking, the plates were read at 540 nm with a Victor 1420 scanning multi-well spectrophotometer. All results represent the average of a minimum of three wells. Additional control consisted of medium alone with no cells. XTT was performed essentially as MTT, with the deletion of the solubilization step and was preferred for the LNCaP cells that adhere poorly to the plates.
# (§5) LNCaP cells were seeded at 15,000 cells/well in 24 well multi-well plates, and LAPC4 cells were seeded at 15,000 cells/well. […] The number of viable cells was compared by MTT assay (LAPC4) or XTT assay (LNCaP) on the 7th day.
# LNCaP cells = assay: Cell proliferation assay (XTT), LNCaP cells; details: Homo sapiens, 168 h
# Experimental: as §3, §4, §5
# [1] = read-out: LAPC4 IC50 (μM), DHT +
# [2] = read-out: LAPC4 IC50 (μM), DHT −
# [3] = read-out: LNCaP IC50 (μM), DHT +
# [4] = read-out: LNCaP IC50 (μM), DHT −
SMILES,inhibition at 10 µM (T877A AR) [%],inhibition at 10 µM (wild-type AR) [%],IC50 (LAPC4 cells; [1]) [µM],IC50 (LAPC4 cells; [2]) [µM],IC50 (LNCaP cells; [3]) [µM],IC50 (LNCaP cells; [4]) [µM]
C[C@]12CC[C@H](O)CC1=CC[C@@H]1[C@@H]2CC[C@]2(C)C(c3cccnc3)=CC[C@@H]12 [Abiraterone],< 20,< 20,,,,
"CC(O)(CS(=O)(=O)c1ccc(F)cc1)C(=O)Nc1ccc(C#N)c(C(F)(F)F)c1 (stereo not shown) [Casodex, Bicalutamide]",,,10,9,8.6,4.6
"C[C@]12CC[C@H](O)CC1=CC[C@@H]1[C@@H]2CC[C@]2(C)C(n3cnc4ccccc43)=CC[C@@H]12 [VN/124-1, 3β-hydroxy-17-(1H-benzimidazole-1-yl)androsta-5,16-diene]",,,3.2,4,6,2.6
